In the CheMixHub viscosity set:

Test: xn = mol fraction of the nth substance listed

Cc1ccncc1 + O
Settings	viscosity [mPa·s]
318.15 K, 101 kPa, x1 = 0.4	1.365

O=C(O)[C@H](O)[C@@H](O)C(=O)O + O
298.2 K, 101.33 kPa
Settings	viscosity [mPa·s]
x1 = 0.00125	0.9157
x1 = 0.002751	0.942
x1 = 0.00453	0.9725
x1 = 0.00652	0.9964
x1 = 0.008655	1.043
x1 = 0.01037	1.046
x1 = 0.01172	1.088

[I-].[K+] + O
310.15 K, 101 kPa
Settings	viscosity [mPa·s]
x1 = 0.000916	0.6942
x1 = 0.001822	0.6976
x1 = 0.001827	0.7047
x1 = 0.002695	0.7079
x1 = 0.003679	0.7155
x1 = 0.005197	0.7273
x1 = 0.005988	0.7335

CCCCN + O=C1CCCCC1
Settings	viscosity [mPa·s]
298.15 K, 101 kPa, x2 = 0.0765	0.623
298.15 K, 101 kPa, x2 = 0.157	0.754
298.15 K, 101 kPa, x2 = 0.2421	0.903
298.15 K, 101 kPa, x2 = 0.3319	1.06
298.15 K, 101 kPa, x2 = 0.427	1.223
298.15 K, 101 kPa, x2 = 0.5278	1.392
298.15 K, 101 kPa, x2 = 0.6349	1.563
298.15 K, 101 kPa, x2 = 0.7488	1.725
298.15 K, 101 kPa, x2 = 0.8702	1.88
303.15 K, 101.33 kPa, x1 = 0.1251	2.752
303.15 K, 101.33 kPa, x1 = 0.2012	2.984
303.15 K, 101.33 kPa, x1 = 0.2448	3.075
303.15 K, 101.33 kPa, x1 = 0.3617	3.092
303.15 K, 101.33 kPa, x1 = 0.5296	2.811
303.15 K, 101.33 kPa, x1 = 0.6105	2.592
303.15 K, 101.33 kPa, x1 = 0.7626	1.94
303.15 K, 101.33 kPa, x1 = 0.887	1.202
